According to patent publication EP4537815A1, “COMPOSITION COMPRISING A LASSO PEPTIDE […] A PHARMACEUTICALLY ACCEPTABLE NANOEMULSION” (priority 2023, dated 2025):
“Also recorded” adds a separate entry of the source. Where a SMILES comes first, the peptide text is derived from it. Bridges are numbered along the chain shown (N, C = ends).

Assays:
[1] = system: E. faecalis V583 (exhibiting VanB resistance); assay: Vancomycin MIC by microdilution (CLSI) in GM17, VanB-resistant strain, with or without lasso peptide; format: cell-based; details: VanB-type
Experimental: (§1) An evaluation of bacterial growth was performed in vitro to assess the bacterial response to either vancomycin or bacitracin, in the absence or in the presence of either sviceucin or siamycin I.
(§2) Each strain was cultured at 37 °C in M17 medium (Terzaghi and Sandine 1975) supplemented with 0.5 % (weight/volume) glucose (GM17 medium). Overnight cultures are grown in GM17 broth and are used to inoculate the cultures for MIC measurement.
(§3) Lyophilized lasso peptides were solubilized first at 800 µM in a 1:1 solution of sterilized pure water and methanol. This stock is used for subsequent dilutions in GM17.
(§4) The measurement of the minimal inhibitory concentration (MIC) of antibiotic (either vancomycin or bacitracin) was determined by the microdilution method in accordance with the guidelines of the Clinical and Laboratory Standards Institute (CLSI 2012), with GM17 medium used as a growth medium. Subsequent 2-fold serial dilutions of the antibiotic (either vancomycin or bacitracin) were performed to obtain concentrations ranging from 0.5 to 512 µg/mL.
(§5) The lasso peptides (either siamycin I or sviceucin) were added for the relevant conditions at a final concentration of 10 µM, 5 µM or 2.5 µM. Bacterial strains from overnight cultures were added with an inoculum of 5 x 10^5 CFU/mL. The MIC corresponds to the lowest concentration in the wells where no growth is observed. […]

[2] = system: E. faecium Bi21 (exhibiting VanA resistance), E. faecium Bi22 (exhibiting VanA resistance); assay: Vancomycin MIC by microdilution (CLSI) in GM17, VanA-resistant strains, with or without lasso peptide; format: cell-based
Experimental: as §1, §2, §3, §4, §5

[3] = system: bacitracin resistant Gram-positive bacteria belonging to the Enterococcus genus; assay: Bacitracin MIC by microdilution (CLSI) in GM17, with or without lasso peptide; format: cell-based
Experimental: as §1, §2, §3, §4, §5

[4] = system: E. faecalis V583, E. faecium Bi21, E. faecium Bi22; assay: In vitro bacterial growth in the presence of the lasso peptide alone; format: cell-based, Enterococcus
Experimental: as §1, §2, §3
The lasso peptides (either siamycin I or sviceucin) were added for the relevant conditions at a final concentration of 10 µM, 5 µM or 2.5 µM. Bacterial strains from overnight cultures were added with an inoculum of 5 x 10^5 CFU/mL. The MIC corresponds to the lowest concentration in the wells where no growth is observed.

Row | SMILES | effect on vancomycin resistance ([1]; lasso peptide at 2.5 µM combined with vancomycin) | Vancomycin MIC (VanA-resistant strains) ([2]; in the presence of the lasso peptide at 5 µM) [µg/mL] | effect on vancomycin resistance ([2]; lasso peptide at 2.5 µM combined with vancomycin, VanA-type) | effect on bacitracin resistance ([3]; lasso peptide at 2.5 µM combined with bacitracin) | Growth in the presence of the lasso peptide alone ([4]; lasso peptide at 2.5 µM) | Growth in the presence of the lasso peptide alone ([4]; lasso peptide at 5 µM) | effect on vancomycin resistance ([1]; lasso peptide at 10 µM combined with vancomycin) | effect on bacitracin resistance ([3]; lasso peptide at 10 µM combined with bacitracin)
1 | CC[C@H](C)[C@@H]1NC(=O)[C@H](C)NC(=O)[C@H](Cc2ccc(O)cc2)NC(=O)CNC(=O)[C@@H]2CSSC[C@@H]3NC(=O)C[C@H](NC(=O)[C@H](CC(N)=O)NC(=O)[C@H](CSSC[C@@H](C(=O)N[C@@H](Cc4ccccc4)C(=O)N[C@@H](Cc4c[nH]c5ccccc45)C(=O)O)NC(=O)[C@H](C(C)C)NC1=O)NC(=O)[C@H](CO)NC(=O)CNC(=O)[C@H](C(C)C)NC(=O)CNC(=O)[C@H](CC(C)C)NC3=O)C(=O)N[C@@H](Cc1ccccc1)C(=O)N[C@@H](C)C(=O)NCC(=O)N2 [Siamycin I, siamycin I] (CLGVGSCNDFAGCGYAIVCFW-OH; disulfide 1-13, 7-19 (inferred); lactam N-9 (inferred); C-terminus assumed) | reverses vancomycin resistance | 0 | reverses vancomycin resistance | reverses bacitracin resistance | Growth slowed down but not inhibited | exhibits a growth inhibition activity; also recorded: Growth inhibited | – | –
2 | CC[C@H](C)[C@@H]1NC(=O)[C@H](Cc2c[nH]c3ccccc23)NC(=O)[C@H](C)NC(=O)[C@H]([C@@H](C)O)NC(=O)CNC(=O)[C@@H]2CSSC[C@@H]3NC(=O)C[C@H](NC(=O)[C@H]([C@@H](C)O)NC(=O)[C@H](CSSC[C@@H](C(=O)N[C@H](C(=O)O)C(C)C)NC1=O)NC(=O)[C@H](CC(=O)O)NC(=O)CNC(=O)CNC(=O)[C@H](Cc1c[nH]c4ccccc14)NC(=O)[C@H](C(C)C)NC3=O)C(=O)N[C@@H](Cc1ccccc1)C(=O)N[C@@H](CC(C)C)C(=O)NCC(=O)N2 [Sviceucin, sviceucin] (CVWGGDCTDFLGCGTAWICV-OH; disulfide 1-13, 7-19 (inferred); lactam N-9 (inferred); C-terminus assumed) | – | – | – | – | – | – | reverses vancomycin resistance | reverses bacitracin resistance
